Key:
Experiment in all cases: Seedling stage sealing experiment for water-seeding
Assay type in all cases: in vivo
[1] = tested on: Echinochloa phyllopogon; conditions: 120 g a.i./ha, seedling stage sealing, 15 days, fresh weight control rate
Summary of the method: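 Read-out: 0–9 damage level from fresh-weight control rate (9 = completely dead, 1 = under 10%, 0 = no effect), averaged over triplicates, taken 15 days after spraying. Doses were 120, 60, 30 and 15 g a.i./ha, acetone/water solution, spray tower.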

[2] = tested on: Echinochloa crusgalli; conditions: 120 g a.i./ha, seedling stage sealing, 15 days, fresh weight control rate
[3] = tested on: Leptochloa chinensis; conditions: 120 g a.i./ha, 15 days, fresh weight control rate
Description: (1) Seedling Stage Sealing Experiment for Water-Seeding:
The activity level criteria for plant damage (i.e., growth control rate) are as follows: • Level 9: completely dead; • Level 8: growth control rate greater than or equal to 90% and less than 100%; • Level 7: growth control rate greater than or equal to 80% and less than 90%; • Level 6: growth control rate greater than or equal to 70% and less than 80%; • Level 5: growth control rate greater than or equal to 50% and less than 70%; • Level 4: growth control rate greater than or equal to 30% and less than 50%; • Level 3: growth control rate greater than or equal to 20% and less than 30%; • Level 2: growth control rate greater than or equal to 10% and less than 20%; • Level 1: growth control rate less than 10%; • Level 0: no effect.
The above growth control rates are fresh weight control rates.
Echinochloa phyllopogon, Digitaria sanguinalis, Huaidao (rice cultivar), etc. were broadcasted on the surface of nutrition bowls filled with soil and fully covered by soil. The foregoing well-prepared nutrition bowls were then placed in a cultivation box with water filled to a suitable height to keep the soil in the nutrition bowls moist. A test compound of the present invention was individually dissolved with acetone, then diluted into solution of a certain concentration using a certain amount of water, and sprayed using a spray tower. The plants were placed on a greenhouse seedbed and cultured for 15 days, and the experimental results were then collected. The compound was applied at 120, 60, 30 and 15 g a.i./ha in triplicate, and the results were averaged.

SMILES | Echinochloa phyllopogon activity level (growth control rate) [1] | Echinochloa crusgalli activity level (growth control rate) [2] | Leptochloa chinensis activity level (growth control rate) [3]
CC(C)Oc1cc([C@H]2CN(C)C(=O)[C@@H]2C(=O)Nc2cnn(C)c2Cl)ccc1F [318′] | 8 (Level 8: growth control rate greater than or equal to 90% and less than 100%) | 9 | 8 (Level 8: growth control rate greater than or equal to 90% and less than 100%)
CCOc1cc(F)cc([C@H]2CN(C)C(=O)[C@@H]2C(=O)Nc2cnn(C)c2Cl)c1 [299′] | 9 | 9 | 9
CN1C[C@H](c2cc(F)cc(F)c2)[C@@H](C(=O)Nc2c(O)nn(C)c2F)C1=O [263′] | 8 (Level 8: growth control rate greater than or equal to 90% and less than 100%) | 9 | 9
CC(C)n1ncc(NC(=O)C2C(=O)N(C)CC2c2cccc(C(F)(F)F)c2)c1Cl (stereo not drawn) [Compound 97] | 7 (Level 7: growth control rate greater than or equal to 80% and less than 90%) | 9 | 9
C=Cc1c(NC(=O)[C@H]2C(=O)N(C)C[C@@H]2c2cc(C)cc(C)c2)cnn1C [275′] | 9 | 9 | 9
CN1CC(c2cc(F)cc(F)c2)C(C(=O)Nc2cnn(C)c2Cl)C1=O (stereo not drawn) [Compound 115] | 6 (Level 6: growth control rate greater than or equal to 70% and less than 80%) | 9 | 6 (Level 6: growth control rate greater than or equal to 70% and less than 80%)
CN1C[C@H](c2cccc(I)c2)[C@@H](C(=O)Nc2cnn(C)c2Cl)C1=O [125′] | 9 | 9 | 9
COc1cc(Cl)cc([C@H]2CN(C)C(=O)[C@@H]2C(=O)Nc2cnn(C)c2Cl)c1 [297′] | 6 (Level 6: growth control rate greater than or equal to 70% and less than 80%) | 9 | 9
CC(C)c1c(NC(=O)[C@H]2C(=O)N(C)C[C@@H]2c2cccc(C(F)(F)F)c2)cnn1C [194′] | 5 (Level 5: growth control rate greater than or equal to 50% and less than 70%) | 5 (Level 5: growth control rate greater than or equal to 50% and less than 70%) | 6 (Level 6: growth control rate greater than or equal to 70% and less than 80%)
CN1C[C@H](c2ccc(F)c(Cl)c2)[C@@H](C(=O)Nc2c(O)nn(C)c2F)C1=O [311′] | 8 (Level 8: growth control rate greater than or equal to 90% and less than 100%) | 9 | 9
CC(C)c1cccc([C@H]2CN(C)C(=O)[C@@H]2C(=O)Nc2cnn(C)c2Cl)c1 [20′] | 8 (Level 8: growth control rate greater than or equal to 90% and less than 100%) | 9 | 9
CN1C[C@H](c2cccc(OC(F)(F)C(F)F)c2)[C@@H](C(=O)Nc2cnn(C)c2Cl)C1=O [231′] | 6 (Level 6: growth control rate greater than or equal to 70% and less than 80%) | 9 | 9
CN1C[C@H](c2cccc(C(F)(F)F)c2)[C@@H](C(=O)Nc2cnn(C)c2C2CC2)C1=O [195′] | 7 (Level 7: growth control rate greater than or equal to 80% and less than 90%) | 9 | 9
CN1CC(c2cccc(OC(F)(F)F)c2)C(C(=O)Nc2cnn(C)c2Cl)C1=O (stereo not drawn) [Compound 33] | 5 (Level 5: growth control rate greater than or equal to 50% and less than 70%) | 9 | 9
CN1C[C@H](c2cccc(OC(F)(F)F)c2)[C@@H](C(=O)Nc2cnn(C)c2Cl)C1=O [33′] | 8 (Level 8: growth control rate greater than or equal to 90% and less than 100%) | 9 | 9
COc1cc([C@H]2CN(C)C(=O)[C@@H]2C(=O)Nc2cnn(C)c2Cl)cc(C(F)(F)F)c1 [75′] | 6 (Level 6: growth control rate greater than or equal to 70% and less than 80%) | 9 | 9
CN1CC(c2cccc(Cl)c2)C(C(=O)Nc2cnn(C)c2Cl)C1=O (stereo not drawn) [Compound 16] | 5 (Level 5: growth control rate greater than or equal to 50% and less than 70%) | 6 (Level 6: growth control rate greater than or equal to 70% and less than 80%) | 9
CN1C[C@H](c2cc(F)cc(C(F)(F)F)c2)[C@@H](C(=O)Nc2cnn(C)c2C2CC2)C1=O [293′] | 9 | 9 | 9
Cc1cccc([C@H]2CN(C)C(=O)[C@@H]2C(=O)Nc2cnn(CC(F)(F)F)c2Cl)c1 [129′] | 8 (Level 8: growth control rate greater than or equal to 90% and less than 100%) | 9 | 9
CC(C)n1ncc(NC(=O)[C@H]2C(=O)N(C)C[C@@H]2c2cc(F)cc(C(F)(F)F)c2)c1Cl [291′] | 9 | 9 | 9
CN1C[C@H](c2cccc(C(F)(F)F)c2)[C@@H](C(=O)Nc2cnn(C(F)F)c2Cl)C1=O [158′] | 8 (Level 8: growth control rate greater than or equal to 90% and less than 100%) | 9 | 9
COc1cc(C2CN(C)C(=O)C2C(=O)Nc2cnn(C)c2Cl)ccc1F (stereo not drawn) [Compound 320] | 6 (Level 6: growth control rate greater than or equal to 70% and less than 80%) | 6 (Level 6: growth control rate greater than or equal to 70% and less than 80%) | 5 (Level 5: growth control rate greater than or equal to 50% and less than 70%)
CN1CC(c2cc(F)cc(C(F)(F)F)c2)C(C(=O)Nc2cnn(C)c2Cl)C1=O (stereo not drawn) [Compound 67] | 6 (Level 6: growth control rate greater than or equal to 70% and less than 80%) | 9 | 9
CN1CC(c2cccc(C(F)(F)F)c2)C(C(=O)Nc2cnn(C3CC3)c2Cl)C1=O (stereo not drawn) [Compound 164] | 6 (Level 6: growth control rate greater than or equal to 70% and less than 80%) | 7 (Level 7: growth control rate greater than or equal to 80% and less than 90%) | 9
COc1cccc([C@H]2CN(C)C(=O)[C@@H]2C(=O)Nc2cnn(C)c2Cl)c1 [28′] | 6 (Level 6: growth control rate greater than or equal to 70% and less than 80%) | 8 (Level 8: growth control rate greater than or equal to 90% and less than 100%) | 9
CN1C[C@H](c2ccc(F)c(Cl)c2)[C@@H](C(=O)Nc2cnn(C)c2C2CC2)C1=O [308′] | 9 | 9 | 9
COc1cc([C@H]2CN(C)C(=O)[C@@H]2C(=O)Nc2cnn(C)c2Cl)ccc1Cl [319′] | 5 (Level 5: growth control rate greater than or equal to 50% and less than 70%) | 5 (Level 5: growth control rate greater than or equal to 50% and less than 70%) | 6 (Level 6: growth control rate greater than or equal to 70% and less than 80%)
CN1C[C@H](c2cccc(OC(F)(F)F)c2)[C@@H](C(=O)Nc2c(O)nn(C)c2F)C1=O [229′] | 9 | 9 | 9

Reference: patent US20260223850A1, “SUBSTITUTED PYRROLIDONE COMPOUND, PREPARATION METHOD THEREFOR, COMPOSITION AND APPLICATION THEREOF” (QINGDAO KINGAGROOT CHEMICAL COMPOUND CO., LTD., priority 2023, published 2026)
